This is an account of results in PubChem BioAssay AID1421 (Emory University Molecular Libraries Screening Center, 2008).

Active and inactive are the calls of the source. The rule behind the calls is not given here.

The target in the first assay is Prostaglandin E2 receptor EP2 subtype (Homo sapiens) (UniProt P43116). Kind of assay: compounds shifting PGE2 potency at EP2 – cell-based, human EP2, PGE2 EC50 shift, dose response (AID 1421). Particulars: EP2-expressing cells, PGE2 EC50 shift by compound.
Chain of Prostaglandin E2 receptor EP2 subtype (Homo sapiens) (P43116 whole entry, looked up): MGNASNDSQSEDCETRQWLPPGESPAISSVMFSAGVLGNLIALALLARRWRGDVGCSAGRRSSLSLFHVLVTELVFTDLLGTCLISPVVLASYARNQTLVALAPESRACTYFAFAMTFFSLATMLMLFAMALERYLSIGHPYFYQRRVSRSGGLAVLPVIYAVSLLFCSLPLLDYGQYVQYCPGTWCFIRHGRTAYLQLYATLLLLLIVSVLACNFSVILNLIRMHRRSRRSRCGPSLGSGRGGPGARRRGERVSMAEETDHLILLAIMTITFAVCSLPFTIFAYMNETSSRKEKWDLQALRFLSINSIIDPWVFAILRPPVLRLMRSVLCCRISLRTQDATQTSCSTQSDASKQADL
Take `O=C(O)COc1ccc(/C=C/c2ccc3cccc([N+](=O)[O-])c3n2)cc1`: the result was active. Same read-out and setting: in the case of `CCCCn1c(=O)c2ccccc2c2ccccc2c1=O` it was “active”.

As for `CCOc1cc(-c2noc(-c3ccncc3)n2)cc(Br)c1OC`, the result was active.

In the case of `Cc1cc(C)n(-c2nc3ccccc3nc2Nc2ccc3[nH]c(=O)[nH]c3c2)n1`, the result was active. Take `CCCc1cc(-c2n[nH]c(=S)n2C(C)c2ccccc2)cs1` (stereo not drawn): the outcome was active.

The assay is the same for the next values; noted with them: EP2-expressing cells, PGE2 EC50 shift by compound; measured here: PGE2 EC50 at 6.7 uM compound.
Consider `O=C(O)c1ccc(CNCc2cccc(Cl)c2Cl)cc1`, for which the PGE2 EC50 with compound is 0.88 nM. On the same count and under the same terms, in the case of `CCc1ccc(Nc2oc(C)cc(=O)c2C(C)=O)cc1` it was 1.55 nM; in that of `COc1ccc(C2=Nn3c(nnc3C3CCCCC3)SC2)cc1OC`, 1.58 nM; in that of `CCCCNc1nc(N(C)c2ccccc2)nc(-n2ccnc2)n1`, 1.11 nM. As for `O=c1c2c(nc3n1CCCCC3)-c1ccccc1CC21CCCCC1`, the PGE2 EC50 with compound was 1.25 nM.

As to `Cc1cccc(-n2c(CCc3ccccc3)nnc2SCC(=O)c2ccccc2)c1`, the PGE2 EC50 with compound is 1.16 nM. Same read-out and setting: the figure for `CCOC(=O)c1c(NC(=O)c2cccs2)sc2c1CCCC2` is 0.81 nM; for `Cc1oncc1-c1csc(-c2ccccc2Cl)n1` it is 1 nM; for `CC(C)=CCC/C(C)=C/CC/C(C)=C/CSc1ccccc1C(=O)O` it is 0.69 nM. Same read-out and setting: in the case of `CC(/C=C1\SC(=S)N(C(C(=O)O)C(C)C)C1=O)=C\c1ccccc1` (stereo not drawn) it was 0.86 nM. Still for that read-out and setting: in the case of `CSc1nnc(CSCc2ccc(Cl)cc2Cl)n1-c1ccccc1` it was 2.63 nM. As to `Cc1ccc(S(=O)(=O)N(CC(=O)N=Nc2c(O)[nH]c3ccccc23)c2ccc(C)c(C)c2)cc1`, the PGE2 EC50 with compound was 2.05 nM. Still for that read-out and setting: the figure for `C=CCC(=O)OCCCCCCOc1ccc(C(=O)O)cc1` is 0.58 nM; for `FC(F)(F)c1nnc(-c2ccccc2)nc1Sc1ccccc1` it is 0.91 nM; for `CC1=CCc2c(cc3oc(C)cc(=O)c3c2O)OC1` it is 1.3 nM.

With `FC(F)(F)c1cccc(-c2cc3ccccc3nc2N2CCCC2)c1`, the PGE2 EC50 with compound is 1.36 nM. Same read-out and setting: the figure for `O=C(NCCC1=CCCCC1)c1cccc2c1C(=O)N(C1CCCCC1)C2` is 1.18 nM; for `c1ccc(-c2n[nH]nc2-c2ccccc2)cc1` it is 0.9 nM; for `Cn1c(=O)[nH]c(=O)c2c1nc(CN1CCN(c3ccccc3F)CC1)n2CCCc1ccccc1` it is 0.83 nM. Regarding `COc1ccc(C2=NN(C(=O)c3cccs3)C(O)(C(F)(F)F)C2)cc1` (stereo not drawn), the PGE2 EC50 with compound was 3 nM. The same measure, in the same setting: the figure for `CCOC(=O)c1[nH]c2ccc(OC)cc2c1NS(=O)(=O)c1ccc(Cl)s1` is 2.87 nM; for `CC(=O)Nc1ccc(C2=NN(c3ccccc3)C(c3cccs3)C2)cc1` (stereo not drawn) it is 0.65 nM. As to `O=C(O)c1cc2c(s1)-c1ccccc1OC2`, the PGE2 EC50 with compound is 0.91 nM. For the compound `Cn1cc(C2=C(c3ccc(Cl)cc3Cl)C(=O)NC2=O)c2ccccc21`, the PGE2 EC50 with compound is 0.68 nM. Same read-out and setting: in the case of `O=C(COc1ccccc1)Nc1ccccc1Oc1ccccc1` it was 1.41 nM; in that of `Cc1ccc(C(=O)N2N=C(c3ccccc3)CC2(O)C(F)(F)F)o1` (stereo not drawn), 1.62 nM. The same measure, in the same setting: in the case of `COc1ccc(C(=O)NCCCN2CCOCC2)cc1OC` it was 0.99 nM.

Turning to `O=C(O)COc1cccc(NC(=O)c2ccccc2)c1`, the PGE2 EC50 with compound came to 2.83 nM. Turning to `CCn1c2ccccc2c2cc([N+](=O)[O-])ccc21`, the PGE2 EC50 with compound worked out at 0.83 nM. On the same count and under the same terms, in the case of `CCC1C/C(=C/c2ccco2)C(=O)/C(=C/c2ccco2)C1` (stereo not drawn) it was 1.02 nM. The same measure, in the same setting: the figure for `CCn1c2ccc(OC)cc2c2nc3ccccc3nc21` is 2.47 nM; for `CCC(=O)Oc1ccc2c(C)cc(=O)oc2c1C(=O)c1ccccc1` it is 1 nM; for `COCCOC(=O)c1c(C)oc2ccc(OCc3ccccc3)cc12` it is 1.04 nM. On the same count and under the same terms, in the case of `O=c1c(C=NCc2ccccc2)c(NCc2ccccc2)nc2ccccn12` it was 0.96 nM. On to `CCCCOC(=O)CSc1nc(N)c(C#N)c(-c2ccc(OCC)cc2)c1C#N`, for which the PGE2 EC50 with compound stood at 1.39 nM. The same measure, in the same setting: in the case of `c1ccc(-c2noc(-c3ccccc3-c3ccccc3)n2)cc1` it was 0.84 nM; in that of `CCc1ccccc1NC(=O)/C(=C/c1ccco1)c1ccccc1`, 1.58 nM; in that of `Cc1c(OCc2ccccc2)c(=O)ccn1Cc1ccc(Cl)cc1`, 1.02 nM.

For the compound `Cc1ccc(C)n1-n1c(C)nc2scc(-c3cccs3)c2c1=O`, the PGE2 EC50 with compound worked out at 1.02 nM. Same read-out and setting: the figure for `CSc1nc(Sc2ccccc2Cl)c2ccccc2n1` is 0.7 nM; for `O=C(O)COc1ccc(/C=C/c2ccc3cccc([N+](=O)[O-])c3n2)cc1` it is 2.11 nM. The same measure, in the same setting: in the case of `COC(=O)C1C(c2ccccc2)C(C(=O)OCc2ccco2)C1c1ccccc1` (stereo not drawn) it was 2.61 nM; in that of `CCCCCn1c(SCCC(C)C)nc2c1c(=O)[nH]c(=O)n2C`, 1.21 nM.

Regarding `CCCCn1c(C)cc(C)c(S(=O)(=O)c2ccccc2C)c1=O`, the PGE2 EC50 with compound was found to be 1.08 nM. The same measure, in the same setting: in the case of `O=C(CSc1nnc(COc2ccccc2)n1-c1ccccc1)c1ccccc1` it was 1.19 nM; in that of `Cc1cc2ccccc2nc1SCC(=O)NC1CCCCC1`, 2.75 nM; in that of `C=CCSc1nc2ccsc2c(=O)n1-c1ccccc1`, 2.54 nM.

Turning to `CCn1c(=NC(=O)c2ccc(S(=O)(=O)N(C)C)cc2)sc2cccc(OC)c21`, the PGE2 EC50 with compound stood at 1.17 nM.

For the compound `Cc1ccccc1NC(=O)/C(=C/c1ccccc1)c1ccccc1`, the PGE2 EC50 with compound came to 1.23 nM. Same read-out and setting: in the case of `CCCCn1c(=O)c2ccccc2c2ccccc2c1=O` it was 0.96 nM. Still for that read-out and setting: the figure for `CCOC(=O)CSc1nc(-c2ccccc2)nc2ccccc12` is 0.87 nM. The same measure, in the same setting: in the case of `COc1ccc(CN2C(=O)CN=C2Nc2cc(C)ccc2C)cc1` it was 1.04 nM; in that of `O=C(/C=C/Nc1ccccc1Oc1ccccc1)c1ccco1`, 2.67 nM; in that of `Clc1ccccc1C1NCc2ccccc2-n2cccc21` (stereo not drawn), 0.34 nM. For the compound `CCOc1cc(-c2noc(-c3ccncc3)n2)cc(Br)c1OC`, the PGE2 EC50 with compound was 0.84 nM. `O=c1c2ccccc2nc(N2CCCC2)n1-c1ccc(Cl)cc1`: the PGE2 EC50 with compound came out at 2.64 nM. On the same count and under the same terms, the figure for `O=C(Nc1cccc(Cl)c1N1CCCCC1)c1ccc2c(c1)OCCO2` is 0.64 nM; for `Cc1cccc(C)c1N1CCN(c2ccc3nnc(C(F)(F)F)n3n2)CC1` it is 0.52 nM; for `OCCCNc1nc(-c2ccc(Br)cc2)nnc1-c1ccc(Cl)cc1` it is 1.42 nM. The same measure, in the same setting: the figure for `Cc1cc(C)n(-c2nc3ccccc3nc2Nc2ccc3[nH]c(=O)[nH]c3c2)n1` is 0.83 nM; for `S=C(Nc1ccccc1Cl)N(Cc1ccccc1)Cc1ccccn1` it is 1.62 nM; for `CCc1cc(-c2[nH]ncc2-c2ccc3c(c2)OCO3)c(O)cc1O` it is 1.31 nM. Same read-out and setting: the figure for `Cc1onc(-c2ccccc2)c1C(=O)N(Cc1ccco1)Cc1cccs1` is 0.34 nM. On to `Cc1cc2cc(CN(Cc3nnnn3C3CCCCC3)CC3CCCO3)c(=O)[nH]c2cc1C` (stereo not drawn), for which the PGE2 EC50 with compound stood at 0.97 nM.

In the case of `CCOP(=O)(OCC)c1nc(-c2cccc3ccccc23)oc1N1CCCCC1`, the PGE2 EC50 with compound came out at 1.11 nM. Still for that read-out and setting: the figure for `Cc1sc2ncnc(Sc3ccccc3C(=O)O)c2c1C` is 2.7 nM; for `CCCc1cc(-c2n[nH]c(=S)n2C(C)c2ccccc2)cs1` (stereo not drawn) it is 1.2 nM. The same measure, in the same setting: in the case of `CC/C(=C\C1CCCCC1)C(NP(=O)(c1ccccc1)c1ccccc1)c1ccccc1` (stereo not drawn) it was 1.01 nM.
